According to patent US11103432B2, “Use of 1,3 diglyceride in a topical composition for countering the weakening of the skin barrier” (PIERRE FABRE DERMO-COSMETIQUE, priority 2015, dated 2021):
Where “and” joins values, the source holds several entries; their conditions need not be identical. Equal entries are not always repeated. Where two headings read alike, the source gives them in different places.

What was measured:
[1] = ATR-FTIR of lipids extracted from forearm stratum corneum with added diglyceride (vCH2 vibration); assay type: physicochemical; conditions: 40° C., 3 μg of diglyceride for 30 μg of sample; for influence on the organisation of the intercorneocytory lipids (vCH2, FIG. 2): versus extract devoid of diglyceride
Source text: In order to evaluate the change in the organisation of the lipid phases of the stratum corneum, the inventors used infrared spectroscopy (ATR-FTIR: Attenuated total reflectance—Fourier transform infrared Spectroscopy) to analyse the variation, under the effect of the temperature, of the fundamental vibration bands of the vCH2 aliphatic chains of these lipids. More particularly, the position of the absorption band, corresponding to the stretching of the CH2, is located around wave number 2848 cm^−1. By way of example, an increase in the temperature of the surface of the skin causes a displacement of this bands to the higher wave numbers.
The study was carried out on lipids extracted from the stratum corneum of the forearm in order to have a model as close as possible to reality. We have used infrared spectroscopy (ATR-FTIR), to examine the variation, in function of temperature, of fundamental vCH2 vibration bands of aliphatic chains.
The tests were carried out in similar experimental conditions using lipids extracts from the forearm wherein a standardized quantity of diglyceride is added (3 μg of diglyceride for 30 μg of sample).
The test of the example 2 was reproduced with 1,2-distearoyl-rac-glycerol (1,2 diglyceride) and compared to the test carried out with glyceryl 1,3-distearate (1,3 diglyceride).

[2] = test system: intercorneocytory lipids of the skin; assay: In vivo ATR-FTIR on the inner forearm of healthy volunteers after application of glyceryl 1,3-distearate; set-up: species or system human; conditions: for Δ νCH2, Average / Δ νCH2, single subjects: 40° C., versus control zone
Experimental: This study was carried out on health volunteers. The collection of infrared data was done through the intermediary of the ATR-FTIR sensor on the inner face of the forearm on a zone of 10 cm^2.
A treated zone (with application in vivo of glyceryl 1,3 distearate) and a control zone (without application of glyceryl 1,3 distearate) were determined.
Two concentrations in glyceryl 1,3-distearate were evaluated (table 2: 0.5 mg/cm^2 and table 3: 0.15 mg/cm^2).
At T0: the skin is first heated to between 30 and 45° C.
Then after application in vivo of glyceryl 1,3-distearate on the treated zone, an evaluation is made of the variation in the wave number associated with the vCH2 vibration comparatively to the reference measurement without product applied (control zone) at different times after T0: T 30 minutes, T 1 h30 minutes and T 4 hours.
Tables 2 and 3: express the variation of the wave number associated with the vCH2 vibration of the aliphatic chains of the intercorneocytory lipids at 40° C. in the presence of glyceryl 1,3-distearate comparatively to the reference measurement without glyceryl 1,3-distearate.

[3] = test system: stratum corneum lipids of human skin explants; assay: FTIR measurement of human skin explants with or without pre-treatment (position of CH2 symmetric stretching band)
Experimental: The skin samples were heated at the rate of 1° C./min, and spectra were collected between 28° C. and 43° C.
Lipids organization—FTIR measurement: After 30 min of pre-treatment, FTIR measurements were performed to evaluate the molecular organization of the lipid matrix in the stratum corneum. The procedure is based on the study of the position of the CH2 symmetric stretching band, around 2850 cm^−1, depending on the temperature: the skin samples were heated at the rate of 1° C./min and spectra were collected between 28° C. and 43° C. with and without pre-treatment. The position of the CH2 symmetric stretching band is characteristic of the lipid organization and can be related to the barrier function.
FTIR measurement of skin explant (position of CH2 symmetric stretching band) depending on the temperature;
FTIR measurements were performed on human skin explants (8 donors) with or without pre-treatment. The skin samples were heated at the rate of 1° C./min, and spectra were collected between 28° C. and 43° C.

Human skin = assay: Benzo[a]pyrene skin penetration study, Franz diffusion cell; assay type: in vitro ADME; conditions: for B(a)P at Surface, percentage of the applied dose (Mean) / B(a)P in Receptor fluid, percentage of the applied dose (Mean) / B(a)P in Skin, percentage of the applied dose (Mean) / B(a)P in Stratum corneum, percentage of the applied dose (Mean): n = 8
Experimental: (§1) In order to evaluate the impact of 1,3-diglycerides on the organization of stratum corneum lipids and barrier function, in vitro, skin penetration studies of a known pollutant (benzo[a]pyrene (B(a)P) has been developed and performed. On the same donors, FTIR (Fourier transform infrared) measurement and B(a)P skin penetration were assessed to link lipid organization and the “outside-in” skin barrier function modulations, when the skin is heated up to 42° C.
(§2) Secondly, the impact of pre-treatment with 3% and 15% of glyceryl 1,3 distearate formulated in dimethicone on the modification of the SC (stratum corneum) lipid organization and B(a)P skin penetration provoked by the temperature elevation has been evaluated.
(§3) • OECD Guidelines for the testing of chemicals: guideline 428, skin absorption: in vitro method (13 Apr. 2004); • SCCS Guidelines, basic criteria for the in-vitro assessment of dermal absorption of cosmetics ingredients, updated March 2006.
(§4) For the skin delivery study, two temperatures were set. The classical temperature at the surface of the skin for skin delivery studies is 32° C. This temperature corresponds to the temperature at the surface of the skin in vivo. […]
(§5) The skin penetration study was carried out on 8 donors, the same donor was used for all the conditions:
(§6) The study was carried out on 8 donors, the same donor was used for all the conditions. B(a)P recovery should be comprised between 85% and 115% of the applied dose, in accordance with OECD 428 and SCCS guidelines.
(§7) • % of the applied dose at surface, stratum corneum, skin and receptor fluid; • μg/cm^2 of B(a)P at surface, stratum corneum, skin and receptor fluid. Results were presented with 2 decimals for the percentages and the quantities in μg/cm^2. Formula used in this report: • Standard error of the mean: • sem=Sd/√n • Bioavailability:
(§8) Sum of the quantities found in the skin and receptor fluid.
(§9) The inter-group comparison was performed by a paired Student's t-test with Graph Pad Prism software. The statistical analysis can be interpreted if n>5.

[4] = as above; assay type: in vitro ADME, human; conditions: human, without pre-treatment, 24 h, read-out: bioavailability (skin + receptor fluid) of benzo[a]pyrene, % of the dose applied to the skin
Experimental: as §1, §2, §3, §4, §5, §6, §7, §8, §9

[5] = 0.15 mg/cm^2 (table title), 30 min
[6] = 0.15 mg/cm^2 (table title), 1 h 30
[7] = 0.15 mg/cm^2 (table title), 4 h
[8] = 3% pre-treatment in dimethicone, 32° C., 24 h
[9] = 3% pre-treatment in dimethicone, 42° C., 24 h
[10] = 15% pre-treatment in dimethicone, 32° C., 24 h
[11] = 15% pre-treatment in dimethicone, 42° C., 24 h

## CCCCCCCCCC(=O)OCC(O)COC(=O)CCCCCCCCC [1,3-dicaprin]
[1]
  influence on the organisation of the intercorneocytory lipids (vCH2, FIG. 2): no influence

## CCCCCCCCCCCCCCCCCC(=O)OCC(CO)OC(=O)CCCCCCCCCCCCCCCCC (racemic) [1,2-distearoyl-rac-glycerol]
[1]
  Δ νCH2: variation in the wave number of the νCH2 vibration of the aliphatic chains of the intercorneocytory lipids, with or without diglyceride: -0.65 cm⁻¹

## CCCCCCCCCCCCCCCCCC(=O)OCC(O)COC(=O)CCCCCCCCCCCCCCCCC [glyceryl 1,3-distearate]
[1]
  Δ νCH2: variation in the wave number of the νCH2 vibration of the aliphatic chains of the intercorneocytory lipids, with or without diglyceride: -1.43 cm⁻¹
[2]; [5]
  Δ νCH2, Average: -2.02 cm⁻¹
  Δ νCH2, single subjects: -1.87 cm⁻¹ and -2.16 cm⁻¹
[2]; [6]
  Δ νCH2, Average: -2.08 cm⁻¹
  Δ νCH2, single subjects: -1.91 cm⁻¹ and -2.25 cm⁻¹
[2]; [7]
  Δ νCH2, Average: -1.89 cm⁻¹
  Δ νCH2, single subjects: -1.64 cm⁻¹ and -2.15 cm⁻¹
[2]; 0.5 mg/cm^2, 30 min
  Δ νCH2, Average: -2.46 cm⁻¹
  Δ νCH2, single subjects: -2.56 cm⁻¹ and -3.02 cm⁻¹ and -2.71 cm⁻¹
[2]; 0.5 mg/cm^2, 1 h 30
  Δ νCH2, Average: -2.41 cm⁻¹
  Δ νCH2, single subjects: -2.65 cm⁻¹ and -2.62 cm⁻¹ and -2.6 cm⁻¹
[2]; 0.5 mg/cm^2, 4 h
  Δ νCH2, Average: -2.17 cm⁻¹
  Δ νCH2, single subjects: -2.6 cm⁻¹ and -2.29 cm⁻¹ and -2.18 cm⁻¹
[2]; skin heated between 30 and 45° C.
  persistence of the stabilising effect after application: at least 4 hours
[2]; skin heated between 30 and 45° C., normal conditions of use
  organisation of the intercorneocytory spaces of the skin: stabilise the organisation of the intercorneocytory spaces
[3]; 3% in dimethicone as pre-treatment, 30 min, 43° C., basal 2852.12
  position of the CH2 symmetric stretching band: 2848.7 cm⁻¹
[3]; 3% pre-treatment, 28° C. to 43° C., 0.81 without pre-treatment
  shift of the CH2 symmetric stretching band induced by the heating of the skin: 0.05 cm⁻¹
[3]; pre-treatment with 3% or 15%, T tests, p value<0.05
  impact of the heating on the lipid organization: decrease significantly
Human skin; [8]
  B(a)P at Surface, percentage of the applied dose (Mean): 94.66%
  B(a)P in Receptor fluid, percentage of the applied dose (Mean): 0.05%
  B(a)P in Skin, percentage of the applied dose (Mean): 2.09%
  B(a)P in Stratum corneum, percentage of the applied dose (Mean): 0.82%
Human skin; [9]
  B(a)P at Surface, percentage of the applied dose (Mean): 90.39%
  B(a)P in Receptor fluid, percentage of the applied dose (Mean): 0.17%
  B(a)P in Skin, percentage of the applied dose (Mean): 5.18%
  B(a)P in Stratum corneum, percentage of the applied dose (Mean): 0.90%
Human skin; [10]
  B(a)P at Surface, percentage of the applied dose (Mean): 94.99%
  B(a)P in Receptor fluid, percentage of the applied dose (Mean): 0.04%
  B(a)P in Skin, percentage of the applied dose (Mean): 1.87%
  B(a)P in Stratum corneum, percentage of the applied dose (Mean): 0.77%
Human skin; [11]
  B(a)P at Surface, percentage of the applied dose (Mean): 92.68%
  B(a)P in Receptor fluid, percentage of the applied dose (Mean): 0.15%
  B(a)P in Skin, percentage of the applied dose (Mean): 4.40%
  B(a)P in Stratum corneum, percentage of the applied dose (Mean): 0.75%
Human skin; dose of 3% or 15%, skin maintained in an atmosphere at 42° C.
  penetration of benzo[a]pyrene compared to the basal state and the vehicle: significant decrease

## c1ccc2c(c1)cc1ccc3cccc4ccc2c1c34 [B(a)P, benzo[a]pyrene, reference compound]
[4]; skin temperature 32° C.
  bioavailability at 24 h: ≤ 2.95%
[4]; skin temperature 42° C.
  bioavailability at 24 h: 6.95%
Human skin; human
  B(a)P concentration in the receptor fluid corresponding to the worst case: 12.51 µg/L
  percentage of B(a)P found in the receptor fluid, worst case: 0.13 % of the applied dose
Human skin; human, 24 h
  B(a)P recovered at the surface, % of the applied dose: up to 94.5%
Human skin; without pre-treatment, skin temperature 32° C., 24 h
  bioavailability (skin + receptor fluid) of benzo[a]pyrene, % of the dose applied to the skin: 2.95%

## CCCCCCCCCCCC(=O)OCC(O)COC(=O)CCCCCCCCCCC [1,3-dilauroylglycerol]
[1]
  influence on the organisation of the intercorneocytory lipids (vCH2, FIG. 2): no influence
